This is an account of results in patent US11364242B2, “Treatment agents for inhibiting HIV and cancer in HIV infected patients” (UNIVERSITY OF MARYLAND, BALTIMORE, priority 2015, dated 2022).

In test [1] the test system is multidrug-resistant HIV molecular clone NL4329129-2. In words: PBL infectivity assay, multidrug resistant clone. It counts as cell-based. Conditions: Human immunodeficiency virus 1, 168 h. The procedure: FIG. 2A-2B are bar graphs that illustrate how INK128 inhibits replication of multidrug resistant HIV molecular clone NL4329129-2. Activated PBLs were infected for 2 hours using a MOI of 0.001. Infected cells were cultured in IL-2 medium and the indicated concentrations of INK128. On day 7, virus production was measured by p24 ELISA in the culture supernatants (FIG. 2A), and cell viability was measured by MTT (FIG. 2B) according to an embodiment.
PBLs were isolated from buffy coats of HIV seronegative donors (New York Blood Center). The laboratory-adapted strains HIV BaL and HIV HXB2; primary isolates HIV 92BR020, 92UG031, 93BR029, and 93UG082; and multidrug resistant molecular clone NL4329129-2 were obtained from the NIH AIDS Repository. […] Proliferation of PBLs was measured by the MTT kit (Roche), following the manufacturer's directions. […]
PBLs were separated from buffy coats by density centrifugation over Ficoll-Hypaque (Sigma™), and activated by culture in the presence of 1 μg/mL anti-human CD3 antibody (clone x35, Fisher Scientific™) and 2 μg/mL anti-human CD28 antibody (Clone CD28.6, eBioscience™) for 3 days. […] On day 7, viral replication was measured by p24 ELISA (Coulter) in culture supernatants and cell viability was measured by MTT assays.
EC50 values were determined by variable slope nonlinear regression analysis. […]

Test [2] concerns R5 and X4 HIV, laboratory-adapted and primary isolates. Kind of test: Infectivity assays in primary PBLs, summary over strains. It is filed as cell-based. On the procedure:
PBLs were separated from buffy coats by density centrifugation over Ficoll-Hypaque (Sigma™), and activated by culture in the presence of 1 μg/mL anti-human CD3 antibody (clone x35, Fisher Scientific™) and 2 μg/mL anti-human CD28 antibody (Clone CD28.6, eBioscience™) for 3 days. Activated cells were infected by incubation with virus at a multiplicity of infection (MOI) of 0.001 for 2 hours. Infected cells were washed three times with PBS and cultured in 5% CO2 at 37° C., in RPMI/10% FBS supplemented with 100 units/mL IL-2 (Roche™) and antiviral drugs, in 96-well flat-bottom plates at a density of […] PBLs per 200 μL. Following 3 d of culture, half of the medium was replaced with fresh medium containing IL-2 and antiviral drugs. On day 7, viral replication was measured by p24 ELISA (Coulter) in culture supernatants and cell viability was measured by MTT assays.
The antiviral activity of INK128 was investigated in PBLs infected with CCR5 (R5)-tropic and CXCR4 (X4)-tropic HIV reference strains BaL and HXB2, respectively.

The test system of another test is R5 HIV (JRFL). In words: Real-time PCR of early reverse transcription products and integrated HIV DNA in infected PBLs. It is filed as cell-based. Conditions: 72 hours, PBLs from two donors. The procedure:
Activated PBLs were infected with R5 and X4 HIV strains using a MOI of 0.01. Infected cells were cultured in the presence of IL-2 and different concentrations of INK128. Cell aliquots were collected at 16 and 72 hours for analyses of early products of reverse transcription and of integration, respectively, by real time PCR. Detection of early products of reverse transcription was done with primers specific for the R/U5 region (60). For detection of integrated HIV DNA, a real-time nested Alu-HIV PCR assay was used as previously described (61, 62), with the modifications described herein.
DNA was isolated using Miniblood kit (Qiagen™). PCR amplification was performed using Quantitect SYBR Green™ PCR Kit (Qiagen™) in a LightCycler™ (Biorad™). Detection of early products of reverse transcription was done in reactions containing 100 ng of DNA and the primer pair 5′-[…]-3′ (SEQ ID NO. 1) and 5′-[…]-3′ (SEQ ID NO. 2) (R/U5 region) (60). […] Amplified products were analyzed by denaturation/renaturation to verify the specific Tm. The PCR cycle at which the signal entered the exponential range was used for quantification, and HIV copy numbers were corrected for those of α-tubulin. […] As a standard curve for relative quantification of integrated DNA, the Alu-gag was first run using serial dilutions of DNA isolated from HIV infected PBLs (diluted in HIV-negative DNA). […]

In test [3] the test system is non small cell lung cancer (NSCLC) A549 cells. Kind of test: A549 xenograft tumor in NSG mice. It is filed as in vivo. Conditions: 5 mg/kg daily ip for 4 weeks. On the procedure:
A xenograft tumor was induced by subcutaneous injection of 5×10^6 non small cell lung cancer (NSCLC) A549 cells in mice according to an embodiment.
A xenograft tumor was induced by subcutaneous injection of 5×10^6 non small cell lung cancer (NSCLC) A549 cells in mice. After 3 weeks, tumors became visible (˜200 mm^3, as measured with calipers). Mice were treated with INK128, or vehicle control (FIG. 10A), daily (via ip) for 4 weeks. INK-128 was used at 5 mg/kg (FIG. 10B). Tumor volume was measured at the indicated time points (FIG. 10C).

The test system of another test is CCR5. In words: Flow cytometry quantitation of surface receptor on PBLs. Conditions: IL-2, 7 days, three donors. On the technique in general: In flow cytometry, cells or beads pass a laser one at a time.
The subject of another test is CXCR4. Described as above. Conditions: IL-2, 7 days, three donors.
A further test relates to HIV BaL. Kind of test: HIV BaL infection of NSG mice reconstituted with human PBLs.

Where two headings read alike, the source gives them in different places. Bounds are passed on as bounds.

For `CC(C)n1nc(-c2ccc3oc(N)nc3c2)c2c(N)ncnc21` [INK128, 5-(4-amino-1-propan-2-ylpyrazolo[3,4-d]pyrimidin-3-yl)-1,3-benzoxazol-2-amine], the EC50 in test [1] was 10.9 nM; in test [2] (Human immunodeficiency virus 1, Lymphocyte, both R5 and X4 HIV in primary lymphocytes), less than 50 nM; in test [2] (Human immunodeficiency virus 1, read-out: EC50s ranging, R5 primary isolates, three donors) it was 2.9 to 10.1 nM; in test [2] (Human immunodeficiency virus 1, read-out: EC50s ranging, X4 primary isolates, three donors), 17.5 to 36.7 nM. The integrated provirus entry in the test with R5 HIV (JRFL) is on record as “decreased levels”. For the same compound, in test [3], the tumor growth result is “inhibits tumor growth”. For the same compound, the “percentages of CCR5 expressing cells” value in the test on CCR5 (CD4+ and CD8+ T cell subsets) is on record as “reduced”. The “CCR5 receptor density (molecules/cell)” value in the test on CCR5 is recorded as “decreased”. Besides, the “CXCR4 levels (percentage or density)” value in the test on CXCR4 is “did not change”. The “mean CD4/CD8 cell ratio” value is on record as 0.11 in the test with HIV BaL (day 14, 1 mg/kg/day i.p.); 0.18 in the test with HIV BaL (day 14, 3 mg/kg/day i.p.); 0.76 in the test on HIV BaL (day 14, 5 mg/kg/day i.p.).
